Reference: patent US20230263786A1, “MODULATION OF DRUG-DRUG INTERACTIONS OF VADADUSTAT” (Akebia Therapeutics, Inc., priority 2020, published 2023)
Several values for one entry are separate records, joined by “and”; a condition that tells them apart may be missing. Equal values may be shown once. Read-outs that look alike come from different tables or passages of the source.

Columns and labels:
erythropoietin = experiment: Blood erythropoietin concentration increasing action; assay type: in vivo; settings: normal rat, single oral administration
human PHD3 = human PHD3 (Homo sapiens, UniProt Q9H6Z9); experiment: PHD inhibitory action, PHD3; assay type: biochemical; settings: in vitro
human PHD3, sequence (Q9H6Z9 whole entry): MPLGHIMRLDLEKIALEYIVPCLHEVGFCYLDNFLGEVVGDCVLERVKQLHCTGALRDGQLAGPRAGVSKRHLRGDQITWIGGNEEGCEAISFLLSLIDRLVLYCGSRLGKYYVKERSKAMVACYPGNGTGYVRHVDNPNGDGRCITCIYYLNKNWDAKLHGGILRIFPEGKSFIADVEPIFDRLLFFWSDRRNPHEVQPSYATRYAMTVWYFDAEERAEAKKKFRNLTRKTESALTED

hemoglobin = experiment: Phase III clinical trial in patients with hemodialysis anemia; assay type: in vivo, human
Procedure: The incidence of adverse reactions when this drug was administered up to 24 weeks was 8.3% (2/24 cases).

UGT1A1 = biological target: T1, UGT1A1 (Homo sapiens, UniProt P22309); experiment: UGT1A1 inhibition in vitro; assay type: in vitro ADME
T1 sequence (P22309 26-533): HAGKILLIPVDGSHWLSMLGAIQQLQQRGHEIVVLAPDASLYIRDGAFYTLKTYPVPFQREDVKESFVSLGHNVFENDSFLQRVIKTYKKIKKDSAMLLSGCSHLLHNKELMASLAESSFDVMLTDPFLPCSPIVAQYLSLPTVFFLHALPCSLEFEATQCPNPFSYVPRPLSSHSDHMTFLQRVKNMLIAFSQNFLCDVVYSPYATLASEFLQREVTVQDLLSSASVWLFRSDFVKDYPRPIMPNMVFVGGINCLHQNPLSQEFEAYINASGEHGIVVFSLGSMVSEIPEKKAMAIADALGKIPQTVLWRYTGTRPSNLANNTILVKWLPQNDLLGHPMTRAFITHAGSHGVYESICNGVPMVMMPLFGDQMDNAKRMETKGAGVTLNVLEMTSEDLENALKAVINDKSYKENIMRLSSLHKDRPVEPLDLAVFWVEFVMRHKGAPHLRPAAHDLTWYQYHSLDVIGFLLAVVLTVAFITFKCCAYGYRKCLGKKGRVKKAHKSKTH

[1] = Phase I single-dose study, moderate hepatic impairment versus normal hepatic function; assay type: in vivo, human; settings: for AUC(0-inf) / AUC(0-t) / Cmax / Vd/F / half-life / Tmax / CL renal: both sexes, human, oral, 450 mg; for AUC(0-inf) / AUC(0-t) / Cmax / Vd/F / half-life / Tmax: plasma; for half-life: read-out: Elimination Half-life (t1/2) (converted); for Tmax: median; for CL renal: urine, read-out: CLr, renal clearance (converted)
Procedure: A phase I, open-label, parallel-group, single-dose study was conducted to evaluate the pharmacokinetics (PK) of 450 mg vadadustat administered in adults with moderate hepatic impairment (Child-Pugh Class B) versus those with normal hepatic function. The pharmacokinetic (pK) parameters of Compound 1 were characterized. Safety and tolerability were assessed throughout the study.
Inclusion criteria: participants were male and female adults between 18 and 70 years of age, with either normal hepatic function or moderate hepatic impairment based on the Child-Pugh classification (Child-Pugh Class B [score 7-9]). Moderate hepatic impairment was defined by the presence and severity of elevated bilirubin levels, decreased serum albumin levels, elevated international normalized ratios >2.20, ascites, and hepatic encephalopathy.
Pharmacokinetics. […] PK parameters Ae0-72, Fe %0-72, and CL, were estimated from the urine concentration-time profiles.
8 subjects with hepatic impairment and 8 matched subjects with normal hepatic function were enrolled in the study. All subjects received a single oral 450-mg dose of vadadustat on Day 1 and were required to fast for at least 10 hours before dosing and for 4 hours after dosing.

[2] = Influence of meal on pharmacokinetics, single 450 mg dose; settings: male, human, in vivo, oral
Procedure: The median tmax of this drug was prolonged by postprandial administration for about 1.5 hours as compared with fasting.

[3] = single 450 mg, Moderate Hepatic Impairment, mean ± SD
[4] = single 450 mg, Moderate Hepatic Impairment
[5] = single 450 mg, Normal Liver Function, mean ± SD
[6] = single 450 mg, Normal Liver Function
[7] = After Meal, healthy adult males

O=C(O)CNC(=O)c1ncc(-c2cccc(Cl)c2)cc1O [Compound 1, {[5-(3-chlorophenyl)-3-hydroxypyridine-2-carbonyl]amino}acetic acid]
blood erythropoietin levels (erythropoietin): elevated
IC50 (human PHD3): 7.63 nM
incidence of adverse reactions (hemoglobin; administered up to 24 weeks): 8.3%
Average hemoglobin level, After administration (hemoglobin; at 20 and 24 weeks, 150-600 mg once daily, adjusted average ± standard error): 10.75 ± 0.19
Average hemoglobin level, Before administration (hemoglobin; hemodialysis anemia patients, baseline, mean ± standard deviation): 9.30 ± 0.67
inhibitory effect on UGT1A1 (UGT1A1): inhibitory effect
AUC(0-inf) ([1]; AUC0-inf, Geometric LSM, Total Compound 1, single 450 mg, Moderate Hepatic Impairment): 414 µg·h/mL
AUC(0-inf) ([1]; AUC0-inf, Geometric LSM, Total Compound 1, single 450 mg, Normal Liver Function): 394 µg·h/mL
AUC(0-t) ([1]; AUC0-last, Geometric LSM, Total Compound 1, single 450 mg, Moderate Hepatic Impairment): 410 µg·h/mL
AUC(0-t) ([1]; AUC0-last, Geometric LSM, Total Compound 1, single 450 mg, Normal Liver Function): 389 µg·h/mL
Cmax ([1]; Cmax, Geometric LSM, Total Compound 1, single 450 mg, Moderate Hepatic Impairment): 52 µg/mL
Cmax ([1]; Cmax, Geometric LSM, Total Compound 1, single 450 mg, Normal Liver Function): 50 µg/mL
Vd/F ([1]; Volume of distribution (Vd/F), Unbound Compound 1, single 450 mg, Moderate Hepatic Impairment, mean ± SD): 1490 ± 542 L
Vd/F ([1]; Volume of distribution (Vd/F), Unbound Compound 1, single 450 mg, Normal Liver Function, mean ± SD): 1330 ± 222 L
AUC(0-inf) ([1]; single 450 mg, Moderate Hepatic Impairment, mean ± SD, read-out: AUC0-inf, plasma, total): 436 ± 156 µg·h/mL
AUC(0-t) ([1]; single 450 mg, Moderate Hepatic Impairment, mean ± SD, read-out: AUC0-last, plasma, total): 432 ± 153 µg·h/mL
Cmax ([1]; single 450 mg, Moderate Hepatic Impairment, mean ± SD, read-out: Cmax, plasma, total): 53 ± 12 µg/mL
half-life [1, 3]: 7.8 h
Vd/F ([1]; single 450 mg, Moderate Hepatic Impairment, mean ± SD, read-out: Volume of distribution (Vd/F), total): 12.3 ± 4 L
Tmax [1, 4]: 2 h
AUC(0-inf) ([1]; single 450 mg, Normal Liver Function, mean ± SD, read-out: AUC0-inf, plasma, total): 397 ± 72 µg·h/mL
AUC(0-t) ([1]; single 450 mg, Normal Liver Function, mean ± SD, read-out: AUC0-last, plasma, total): 395 ± 72 µg·h/mL
Cmax ([1]; single 450 mg, Normal Liver Function, mean ± SD, read-out: Cmax, plasma, total): 53 ± 15 µg/mL
half-life [1, 5]: 5.8 h
Vd/F ([1]; single 450 mg, Normal Liver Function, mean ± SD, read-out: Volume of distribution (Vd/F), total): 9.6 ± 1.9 L
Tmax [1, 6]: 2.5 h
CL renal [1, 4]: 0.105 mL/min
CL renal [1, 6]: 0.122 mL/min
impact of moderate hepatic impairment on total systemic exposure ([1]; single 450 mg): no significant impact on total systemic exposure
AUC0-inf, Geometric LSM, Unbound Compound 1 [1, 4]: 3.47 µg·h/mL
AUC0-last, Geometric LSM, Unbound Compound 1 [1, 4]: 3.44 µg·h/mL
Ae0-72, cumulative amount excreted in urine up to 72 hours [1, 4]: 2.45 ± 1.611 mg
Cmax, Geometric LSM, Unbound Compound 1 [1, 4]: 0.433 µg/mL
Fe%0-72, cumulative fraction excreted in urine [1, 4]: 0.545% and 0.545 ± 0.3580%
AUC0-inf, Unbound Compound 1 [1, 3]: 3.78 ± 1.738 µg·h/mL
AUC0-last, Unbound Compound 1 [1, 3]: 3.75 ± 1.709 µg·h/mL
Clearance (CL/F), Unbound Compound 1 [1, 3]: 140 ± 56.02 L/h
Clearance (CL/F), total [1, 3]: 1.2 ± 0.4 L/h
Cmax, Unbound Compound 1 [1, 3]: 0.451 ± 0.1332 µg/mL
Elimination Half-life (t1/2) [1, 3]: 7.75 ± 2.5 h
AUC0-inf, Geometric LSM, Unbound Compound 1 [1, 6]: 2.79 µg·h/mL
AUC0-last, Geometric LSM, Unbound Compound 1 [1, 6]: 2.78 µg·h/mL
Ae0-72, cumulative amount excreted in urine up to 72 hours [1, 6]: 2.76 ± 1.214 mg
Cmax, Geometric LSM, Unbound Compound 1 [1, 6]: 0.360 µg/mL
Fe%0-72, cumulative fraction excreted in urine [1, 6]: 0.614% and 0.614 ± 0.2698%
AUC0-inf, Unbound Compound 1 [1, 5]: 2.91 ± 0.9049 µg·h/mL
AUC0-last, Unbound Compound 1 [1, 5]: 2.90 ± 0.9001 µg·h/mL
Clearance (CL/F), Unbound Compound 1 [1, 5]: 167 ± 49.10 L/h
Clearance (CL/F), total [1, 5]: 1.2 ± 0.3 L/h
Cmax, Unbound Compound 1 [1, 5]: 0.378 ± 0.1131 µg/mL
Elimination Half-life (t1/2) [1, 5]: 5.81 ± 1.4 h
serious AEs ([1]; single 450 mg, both groups): No serious AEs
dose excreted in the urine as Compound 1 ([1]; single 450 mg, both moderate hepatic impairment and normal hepatic function): < 1%
AUC(0-inf) [2, 7]: 351 ± 101 µg·h/mL
Cmax [2, 7]: 46.3 ± 12.2 µg/mL
Tmax ([2]; After Meal, healthy adult males, read-out: tmax): 3.52 h
AUC(0-inf) ([2]; Fasting, healthy adult males): 371 ± 100 µg·h/mL
Cmax ([2]; Fasting, healthy adult males): 63.1 ± 14.6 µg/mL
Tmax ([2]; Fasting, healthy adult males, read-out: tmax): 2 h
Tmax ([2]; compared with fasting, read-out: prolongation of median tmax by postprandial administration): ~1.5 h
